Experimental data from patent publication US11744815B1, “Pharmaceutical composition of dimethylguanidino valeric acid and plant flavonoids for treating chronic inflammatory diseases and cancer” (priority 2022, dated 2023).
“Also recorded” adds a separate entry of the source.

Assays:
AGXT2^−/− T cells = assay: ROS induction in AGXT2-KO T cells; type: cell-based, mice; conditions: ADMA 10 μM, SDMA 10 μM, DMGV (504)
Procedure: DMGV is converted from asymmetric dimethylarginine (ADMA) or symmetric dimethylarginine (SDMA) by alanine-glyoxylate aminotransferase 2 (AGXT2) in the mitochondria whereas ADMA or SDMA is metabolized to L-citrulline in the cytosol as shown in FIG. 6A. In order to investigate the role of DMGV in T cells, we generated AGXT2-KO (AGXT2^−/−) mice using Crispr/Cas9 technology according to FIG. 6B. Neither ADMA (10 μM) or SDMA (10 μM) induce ROS in AGXT2^−/− T cells but DMGV (504) still does, an evidence that SDMA or ADMA induces ROS only when they are converted to DMGV (FIG. 6C).

[1] = tested on: AGXT2^+/+ and AGXT2^−/− T cells; assay: Survival of AGXT2^+/+ and AGXT2^−/− T cells, 4 days, flow cytometry; type: cell-based, mice
Procedure: To investigate the role of AGXT2 and DMGV in T cell survival, AGXT2^+/+ and AGXT2^−/− T cells were stimulated with the indicated compounds (ADMA: 10 μM, SDMA: 10 μM, DMGV: 504, MitoQ: 100 nM) for 4 days and the survival rate was measured by flow cytometry.

human T cells [2] = assay: Human T cell survival by flow cytometry after 4 days; type: cell-based
Jurkat T cells = assay: Mitochondrial ROS by flow cytometry using CellROX Green, Jurkat T cells; type: cell-based, human; conditions: for induction of ROS: kaempferol 5 μM, quercetin 25 μM, daidzein 5 μM
Procedure: (§1) The invention further investigated how DMGV suppresses cell proliferation and survival.
In order to locate the cellular compartment of ROS generated by DMGV, Jurkat T cells were incubated with the mitochondria-specific ROS inhibitor MitoQ (100 nM) for 15 min before stimulation with DMGV (504) for ROS measurement.
(§2) As certain flavonoids are known to active MCU, we tested whether DMGV and the flavonoids activate MCU in the same manner. Jurkat T cells were treated with the flavonoids [kaempferol (5 μM), quercetin (25 μM), or daidzein (5 μM)]. […] The molecular docking simulator SwissDock predicted that the flavonoids and DMGV bind to MCU in a same pocket.

T cell = assay: ROS induction and T cell proliferation with selective iNOS inhibitor; type: cell-based
[3] = tested on: MCU mutants deleted of Ile127, V135, or Ile127 and V135; assay: MCU deletion mutants transfected to MCU KO cells; type: cell-based; conditions: for dependence of MCU activation on Ile127: MCU mutant deleted of Ile127 in MCU KO cells; for dependence of MCU activation on V135: MCU mutant deleted of V135 in MCU KO cells
Excerpt: To test whether Ile127 and V135 are important for these compounds to activate MCU, we generated 3 different MCU mutants deleted of Ile127, V135, or Ile127 and V135. These MCU mutants were transfected to MCU KO cells and stimulated with kaempferol, daidzein, quercetin, or DMGV.

MCU = target: T1, MCU (Homo sapiens, UniProt Q8NE86); assay: Mitochondrial calcium influx in Jurkat cells expressing Mito-GEM-GECO; type: cell-based; conditions: for induction of mitochondrial calcium: Jurkat T cells, kaempferol 5 μM, quercetin 25 μM, daidzein 5 μM
T1 construct: endogenous in cells; host or cells: Jurkat T cells
T1 sequence (Q8NE86 51-351): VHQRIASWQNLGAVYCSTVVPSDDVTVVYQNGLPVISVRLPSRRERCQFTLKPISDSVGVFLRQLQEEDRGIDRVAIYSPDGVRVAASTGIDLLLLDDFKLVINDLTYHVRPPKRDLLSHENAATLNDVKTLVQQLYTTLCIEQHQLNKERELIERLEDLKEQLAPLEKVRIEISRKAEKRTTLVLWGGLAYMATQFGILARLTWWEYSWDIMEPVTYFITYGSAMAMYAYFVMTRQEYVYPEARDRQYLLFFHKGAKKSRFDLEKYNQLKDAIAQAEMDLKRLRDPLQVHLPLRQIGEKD
T1 sequence (Q9H4I9 48-107 partner limits assumed): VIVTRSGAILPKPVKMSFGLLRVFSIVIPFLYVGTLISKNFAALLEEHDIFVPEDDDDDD
Procedure: (§3) As a sudden influx of calcium to the mitochondria can cause ROS induction, we tested whether DMGV regulates calcium flux to induce ROS. Calcium flux was measured by flow cytometry using the calcium indicator Fluo-8. While stimulation of T cell receptor (TCR) by a stimulatory antibody triggered calcium release from ER (efflux), which in turn induced calcium influx from the outside to cytosol (influx). […] Because of the close proximity between ER and mitochondria, calcium efflux from ER leads to calcium import to the mitochondria, which can be mediated by MCU.
as §2

calcium flux = assay: Calcium flux by flow cytometry using Fluo-8; type: cell-based
Procedure: as §3

autoimmune arthritis = assay: Chronic autoimmune arthritis in SKG mice accelerated by laminarian; type: in vivo; conditions: i.p. 750 μg/mouse, twice a week, up to 50 days, start at score 8
Excerpt: In the second model, SKG mice harbor a point mutation in ZAP-70^W163C and Develop Chronic autoimmune arthritis similar to human RA due to aberrant T cell activation. The disease can be accelerated by injection of […].

[4] = tested on: PC-3 (Human prostate cancer cell lines); assay: Solid tumor cell survival by CCK-8 after 2 days, PC-3; type: cell-based
Procedure: (§4) In example one, pharmaceutical composition was screened and discovered natural small molecules that inhibit T cell survival and proliferation to use as therapeutics for chronic inflammatory diseases and cancers as taught in FIG. 1, T cells were stimulated with or without the indicated amount of DMGV and survival was measured by flow cytometry after 3 days. […] Solid tumor cancer cell lines were incubated with different doses of DMGV or 5-FU (5-fluorouracil), and cells survival was measured by CCK-8 after 2 days.

mouse T cells [5] = assay: Mouse T cell survival in RPMI with or without glucose, 4 days; type: cell-based
Procedure: In order to test the effects of glycolysis on the DMGV function to inhibit survival, mouse T cells were activated with or without DMGV in RPMI with or without glucose for 4 days and the survival rates were measured by flow cytometry. […] Oxidative phosphorylation uses pyruvate, an end product of glycolysis, and thus a diminished glycolysis can decrease oxidative phosphorylation.

activated T cells [6] = assay: Energy metabolism by Seahorse assay; type: cell-based, mouse
Excerpt: The invention tested if DMGV relied on glycolysis to suppress cell survival.

activated T cells [7] = assay: T cell survival by flow cytometry after 3 days; type: cell-based; conditions: stimulated with indicated amount of DMGV
Procedure: as §4

mouse T cells [8] = assay: Mitochondrial ROS by flow cytometry using CellROX Green, mouse T cells; type: cell-based
Excerpt: as §1

chronic colitis = assay: Chronic colitis by adoptive transfer of naïve CD4+ T cells; type: in vivo, Rag2^−/− mice
Excerpt: The present invention tested if DMGV suppresses chronic T cell-mediated inflammation in two mouse models. In the first model, adoptive transfer of naïve CD4^+ T cells from syngeneic mice into immunodeficient (Rag2^−/−) mice induces chronic colitis similar to inflammatory bowel diseases (IBD) in humans, due to differentiation of T cells into pathogenic Th17 cells in the absence of regulatory T cells (Tregs). After adoptively transferring naïve CD4^+ T cells from syngeneic mice to recombinase activating gene-2-deficient (Rag2^−/−) mice to induce colitis, the mice showing the disease symptom in the form of loose stool around 4-6 weeks were randomly divided into two groups. One group (n=9) was treated with DMGV (i.p. 750 μg/mouse, twice a week) and the control group (n=11) with PBS up to 40 days and mortality was observed.

[9] = tested on: Jurkat (Human T lymphocytic leukemia cell lines); assay: Survival of hematological cancer cell line Jurkat; type: cell-based
[10] = tested on: HL-60 (Acute myeloid leukemia M3 cell lines); assay: Survival of hematological cancer cell line HL-60; type: cell-based
Jurkat cells = assay: T cell leukemia model, Jurkat cells injected into tail vein of mice; type: in vivo, NSG/SCID mice; conditions: 700 μg/mouse i.p.
Procedure: The next experiment tested whether DMGV can eliminate cancer cells in vivo. […] After 2 weeks of the injection, the level of Jurkat cells in the peripheral blood reached around 60% of the total leukocytes. The model mice were injected with either PBS (Control) or DMGV (700 μg/mouse intraperitoneal injection, i.p.) for 2 weeks as shown in FIG. 3B.

[11] = tested on: K-562 (Human chronic myeloid leukemia cell lines); assay: Survival of hematological cancer cell line K-562; type: cell-based
[12] = tested on: THP-1 (Acute monocytic leukemia cell lines); assay: Survival of hematological cancer cell line THP-1; type: cell-based
[13] = tested on: HCT-8 (Human colorectal cancer cell lines); type: cell-based
Procedure: as §4

human T cells [14] = assay: Mitochondrial ROS by flow cytometry using CellROX Green, human T cells; type: cell-based
Excerpt: as §1

[15] = tested on: HCA-7 (colorectal cancer cell lines); assay: Solid tumor cell survival by CCK-8 after 2 days, HCA-7; type: cell-based
Procedure: as §4

[16] = MitoQ 100 nM with DMGV 504, 4 days

CN(C)C(N)=NCCC[C@H](N)C(=O)O [ADMA, asymmetric dimethylarginine]
ROS induction in AGXT2^−/− T cells (AGXT2^−/− T cells): do not induce ROS

COC1=C(OC)C(=O)C(CCCCCCCCCC[P+](c2ccccc2)(c2ccccc2)c2ccccc2)=C(C)C1=O [MitoQ, reference compound]
effect on DMGV-induced inhibition of AGXT2^+/+ T cells [1, 16]: rescued AGXT2^+/+ T cells from DMGV-induced inhibition
effect on DMGV-induced rescue of AGXT2^−/− T cells [1, 16]: inhibited DMGV-induced rescue of AGXT2^−/− T cells
effect on DMGV-induced T cell death (human T cells [2]; human T cells, DMGV with or without MitoQ, 4 days): rescued T cells from DMGV-induced cell death
effect on DMGV-induced ROS production (Jurkat T cells; MitoQ (100 nM) 15 min before stimulation with DMGV (504)): completely inhibited ROS production

CC(=N)NCCCC[C@H](N)C(=O)O [N6-(1-iminoethyl)-L-lysine]
ROS induction (T cell): does not induce ROS
T cell proliferation (T cell): does not induce ROS or inhibit T cell proliferation

CN=C(NC)NCCC[C@H](N)C(=O)O [SDMA, symmetric dimethylarginine]
ROS induction in AGXT2^−/− T cells (AGXT2^−/− T cells): do not induce ROS

O=c1c(-c2ccc(O)cc2)coc2cc(O)ccc12 [daidzein, 7-hydroxy-3-(4-hydroxyphenyl)-4H-chromen-4-one]
dependence of MCU activation on Ile127 [3]: independent on it
dependence of MCU activation on V135 [3]: mostly dependent on V135
induction of mitochondrial calcium (MCU): induced mitochondrial calcium
induction of ROS (Jurkat T cells; Jurkat T cells): induced mitochondrial calcium as wells ROS

O=c1c(O)c(-c2ccc(O)cc2)oc2cc(O)cc(O)c12 [kaempferol, 3,5,7-Trihydroxy-2-(4-hydroxyphenyl)-4H-chromen-4-one]
dependence of MCU activation on Ile127 [3]: independent on it
dependence of MCU activation on V135 [3]: totally dependent on it; also recorded: mostly dependent on V135
induction of mitochondrial calcium (MCU): induced mitochondrial calcium
survival of activated human T cells (human T cells [2]; activated human T cells): suppressed survival of activated human T cells via mitochondrial ROS
induction of ROS (Jurkat T cells; Jurkat T cells): induced mitochondrial calcium as wells ROS

Ru360 [reference compound]
effect on DMGV-induced calcium influx to the mitochondria (MCU; Ru360 (104)): completely inhibited
effect on TCR-induced calcium flux (calcium flux; Ru360): not affected

dimethylguanidino valeric acid [DMGV]
survival of AGXT2^+/+ T cells ([1]; DMGV: 504, 4 days): inhibited survival of AGXT2^+/+ T cells
survival of AGXT2^−/− T cells ([1]; DMGV: 504, 4 days): rescued AGXT2^−/− T cells
arthritis score (autoimmune arthritis): significantly decreased the arthritis score
dependence of MCU activation on Ile127 [3]: completely; also recorded: dependent mostly on Ile127
dependence of MCU activation on V135 [3]: independent on Va1135
calcium influx to the mitochondria (MCU; Jurkat cells, Mito-GEM-GECO): induces calcium influx to the mitochondria
ROS induction in AGXT2^−/− T cells (AGXT2^−/− T cells): still does
proliferation of PC-3 [4]: suppresses proliferation
T cell survival in glucose-free culture (mouse T cells [5]): no longer affected T cell survival
glycolysis (activated T cells [6]): significantly inhibited
oxidative phosphorylation (activated T cells [6]): significantly inhibited
survival and proliferation of activated T cells (activated T cells [7]): inhibit the survival and proliferation of activated T cells
calcium efflux (release from ER) (calcium flux; Fluo-8): induced efflux
calcium influx from the outside to cytosol (calcium flux; Fluo-8): not influx
induction of mitochondrial ROS (mouse T cells [8]): rapidly induces mitochondrial ROS
survival (mortality) of colitis mice (chronic colitis; i.p. 750 μg/mouse, twice a week, up to 40 days, n=9): all except for one mouse survived
normalized IL-17A+ T cell number in colonic tissue (chronic colitis; survived mice, compared to the control group): significantly lower
survival of Jurkat cells [9]: suppresses survival
survival of HL-60 cells [10]: suppresses survival
Jurkat cells in the peripheral blood (Jurkat cells; after 2 weeks of treatment): completely eliminated Jurkat cells
cancer-induced death (Jurkat cells; after 4 weeks of treatment): prevented the cancer-induced death
survival of K-562 cells [11]: suppresses survival
survival of THP-1 cells [12]: suppresses survival
inhibition of HCT-8 proliferation compared with 5-FU [13]: inhibited proliferation of HCT-8 better than a known chemotherapeutic drug, 5-FU
proliferation of HCT-8 ([13]; CCK-8 after 2 days): suppresses proliferation
suppression of HCT-8 proliferation, 3D versus 2D culture ([13]; Matrigel (3D) vs 2-dimensional culture): much more effective in suppressing proliferation of HCT-8 cultured in Matrigel™ (3D) than 2D
induction of mitochondrial ROS (Jurkat T cells; Jurkat T cells): rapidly induces mitochondrial ROS
ROS induction in glucose-free medium (Jurkat T cells; Jurkat T cells in RPMI without glucose for 24 h): does not induce ROS
dependence of DMGV-induced ROS on MCU (Jurkat T cells; Ru360 or MCU KO): dependent on MCU
induction of mitochondrial ROS (human T cells [14]): rapidly induces mitochondrial ROS
proliferation of HCA-7 [15]: suppresses proliferation
